Experiments:
Pseudomonas aeruginosa [1] = assay: Antibiotic resistance profile, disc diffusion; further: key: R = resistant; I = intermediate; S = sensitive; assay type: cell-based; details: P. aeruginosa isolated from burn patients
Enterococcus faecalis [2] = assay: Antibiotic resistance profile, disc diffusion; further: key: R = resistant; I = intermediate; S = sensitive; assay type: cell-based; details: E. faecalis isolated from burn patients
Staphylococcus aureus [3] = assay: Antibiotic resistance profile, disc diffusion; further: key: R = resistant; I = intermediate; S = sensitive; assay type: cell-based; details: S. aureus isolated from burn patients
Pseudomonas aeruginosa [4] = assay: MIC/MBC and checkerboard of EDTA-Tris and neomycin; assay type: cell-based; details: in 50 mM Tris
Experimental: (§1) This example describes a method for determining the FIC values set forth in Example 4. […] Agents and Chem. pp. 210-217 (1967); and Sparks et al., Vet. Res. Comm. 18:241-249 (1994). Each of the foregoing publications are incorporated herein by reference.
(§2) Then 0.05 ml of an 18-hour old culture of a test organism, containing […] colony-forming units (CFU) ml, were added to each well. Controls for the culture and media were included in each plate. Plates were covered and incubated at 37° C. for 18-24 hours.
(§3) To generate isobolograms, FICs of the two test solutions were plotted individually on the x-axis and y-axis to determine the effect of combining the two test solutions on bacterial growth. A line that curves away from the zero point and the coordinates indicated antagonism. […] Goodman and Gilman, pp. 1085-1086 (Macmillan Publishing Co., New York, 1985); Sabath, L. D., Antimicrob. Agents and Chem. pp. 210-217 (1967) and incorporated herein by reference in their entireties.
(§4) A numerical score or Fractional Inhibitory Concentration (FIC) index was determined. The FIC index is equal to the sum of the values of FIC for the individual drugs:
(§5) An FIC index greater than 1.0 indicated an antagonistic interaction, an FIC index of 1.0 indicated addition, and an FIC index of less than or equal to 0.5 indicated synergism between the two test agents.
(§6) The organisms of this study were isolated from human burn patients. They included strains of methicillin resistant Staphylococcus aureus, and vancomycin resistant strains of Pseudomonas aeruginosa and Enterococcus faecalis. The bacterial isolates were propagated in or on Brain Heart Infusion broth (BHI), Mueller-Hinton Broth (MHB), blood agar (BA), Mueller-Hinton agar (MBA), enterococcus agar (EA), or 2× nutrient agar (2× NA).
(§7) 307 (pub: Am. Soc. Microbiol. Williams and Wilkins, Baltimore 1970), incorporated herein by reference in its entirety.

Enterococcus faecalis [5] = assay: MIC/MBC and checkerboard of EDTA-Tris and neomycin; assay type: cell-based; details: in 50 mM Tris
Experimental: as §1, §2, §3, §4, §5, §6, §7

Aeromonas sobria = assay: MIC and FIC of EDTA and neomycin, Aeromonas isolated from ulcerated fish; assay type: cell-based; details: A. sobria
Experimental: (§8) This example describes a method for determining the FIC values set forth in Example 4. […] Agents and Chem. pp. 210-217 (1967); and Sparks et al., Vet. Res. Comm. 18:241-249 (1994). Each of the foregoing publications are incorporated herein by reference. […] Then 0.05 ml of an 18-hour old culture of a test organism, containing […] colony-forming units (CFU) ml, were added to each well. Controls for the culture and media were included in each plate. Plates were covered and incubated at 37° C. for 18-24 hours. A numerical score or Fractional Inhibitory Concentration (FIC) index was determined. The FIC index is equal to the sum of the values of FIC for the individual drugs: An FIC index greater than 1.0 indicated an antagonistic interaction, an FIC index of 1.0 indicated addition, and an FIC index of less than or equal to 0.5 indicated synergism between the two test agents.

Aeromonas caviae = assay: as above; assay type: cell-based; details: A. caviae
Experimental: as §8

Staphylococcus aureus [6] = assay: MIC/MBC and checkerboard of EDTA-Tris and neomycin; assay type: cell-based; details: in 50 mM Tris
Experimental: as §1, §2, §3, §4, §5, §6, §7

Aeromonas hydrophila = assay: MIC and FIC of EDTA and neomycin, Aeromonas isolated from ulcerated fish; assay type: cell-based; details: A. hydrophila
Experimental: as §8

[7] = system: surface ulcers with multiple resistant pathogenic species; assay: Bath treatment of ulcerated Koi; assay type: in vivo, Koi (Cyprinus carpio); details: antibiotics injected directly into the fish before the bath treatment
Experimental: An immersion treatment of the infected animals of 5 to 10 minutes on alternate days over a six day period promoted healing of most ulcers.
All of the treated fish had previously been given injections of Azactam, Baytril, and Amikacin. […] Among the species of bacteria found in the ulcers of the fish were representatives of the genera Aeromonas, Proteus, Klebsiella, Staphylococcus, Streptococcus, Enterobacter and Flavobacterium.
All fish were housed in a communal “hospital tank” before treatment and moved to an isolation tank after each treatment. The temperature of the bath was adjusted to that of the hospital tank temperature, 24 C, and adequate aeration was supplied to the treatment tank. Eight of the fish had external ulcers of various dimensions. Two of the fish were dropsied.

[8] = system: Staphylococcus intermedius; assay: MIC/MBC of cocamidopropyl betaine, Tris-EDTA and their combination, dog isolates; assay type: cell-based
Experimental: (§9) The formulation was tested against Pseudomonas aeruginosa, Proteus mirabilis, Escherichia coli, Staphylococcus intermedius, Malessezia pachydermatis, and Candida albicans.

Escherichia coli = assay: as above; assay type: cell-based
Experimental: as §9

Pseudomonas aeruginosa [9] = assay: as above; assay type: cell-based
Experimental: as §9

Malassezia pachydermatis = assay: as above; assay type: cell-based
Experimental: as §9

Proteus mirabilis = assay: as above; assay type: cell-based
Experimental: as §9

Candida albicans = assay: as above; assay type: cell-based
Experimental: as §9

Pseudomonas aeruginosa [10] = assay: MIC/MBC of Tris, EDTA, cocamidopropyl betaine and silver combinations, human burn isolates; assay type: cell-based; details: P. aeruginosa isolated from a human burn patient; x = multiple of the stock solution
Staphylococcus aureus [11] = assay: as above; assay type: cell-based; details: S. aureus isolated from a human burn patient; x = multiple of the stock solution
[12] = S. intermedius from dogs, x = multiple of the 1x stock solution
[13] = E. coli isolated from a dog with otitis externa, x = multiple of the 1x stock solution
[14] = P. aeruginosa from dogs with otitis externa and pyoderma, x = multiple of the 1x stock solution
[15] = M. pachydermatis from dogs, x = multiple of the 1x stock solution
[16] = P. mirabilis from dogs, x = multiple of the 1x stock solution
[17] = C. albicans from dogs, x = multiple of the 1x stock solution

`NC[C@H]1O[C@H](O[C@H]2[C@H](O)[C@@H](O[C@H]3O[C@H](CO)[C@@H](O)[C@H](N)[C@H]3O)[C@H](N)C[C@@H]2N)[C@H](O)[C@@H](O)[C@@H]1O` [K, kanamycin] was tested, and the Antibiotic resistance profile (Pseudomonas aeruginosa [1]) was “R”, the Antibiotic resistance profile (Enterococcus faecalis [2]) was “R” and the Antibiotic resistance profile (Staphylococcus aureus [3]) was “R”.
For `CN[C@H](CC(C)C)C(=O)N[C@H]1C(=O)N[C@@H](CC(N)=O)C(=O)N[C@H]2C(=O)N[C@H]3C(=O)N[C@H](C(=O)N[C@H](C(=O)O)c4cc(O)cc(O)c4-c4cc3ccc4O)[C@H](O)c3ccc(c(Cl)c3)Oc3cc2cc(c3O[C@@H]2O[C@H](CO)[C@@H](O)[C@H](O)[C@H]2O[C@H]2C[C@](C)(N)[C@H](O)[C@H](C)O2)Oc2ccc(cc2Cl)[C@H]1O` [Va, vancomycin], the Antibiotic resistance profile (Pseudomonas aeruginosa [1]) was “R”, the Antibiotic resistance profile (Enterococcus faecalis [2]) was “R” and the Antibiotic resistance profile (Staphylococcus aureus [3]) was “S”.
In the case of `CC[C@H]1OC(=O)[C@H](C)[C@@H](O[C@H]2C[C@@](C)(OC)[C@@H](O)[C@H](C)O2)[C@H](C)[C@@H](O[C@@H]2O[C@H](C)C[C@H](N(C)C)[C@H]2O)[C@](C)(O)C[C@@H](C)C(=O)[C@H](C)[C@@H](O)[C@]1(C)O` [E, erythromycin], the Antibiotic resistance profile (Pseudomonas aeruginosa [1]) is reported as “R”, the Antibiotic resistance profile (Enterococcus faecalis [2]) is reported as “R” and the Antibiotic resistance profile (Staphylococcus aureus [3]) is reported as “R”.
For gentamicin [GM], the Antibiotic resistance profile (Pseudomonas aeruginosa [1]) was “I”, the Antibiotic resistance profile (Enterococcus faecalis [2]) was “R” and the Antibiotic resistance profile (Staphylococcus aureus [3]) was “S”.
In the case of `O=C(N[C@H](CO)[C@H](O)c1ccc([N+](=O)[O-])cc1)C(Cl)Cl` [C, chloramphenicol], the Antibiotic resistance profile (Pseudomonas aeruginosa [1]) is reported as “R”, the Antibiotic resistance profile (Enterococcus faecalis [2]) is reported as “R” and the Antibiotic resistance profile (Staphylococcus aureus [3]) is reported as “I”.
`O=C(O)CN(CCN(CC(=O)O)CC(=O)O)CC(=O)O` [EDTA, ethylenediaminetetraacetate] was tested, and the “MBC, individually administered” value (Pseudomonas aeruginosa [4]) was 250 mM, the “MBC, individually administered” value (Enterococcus faecalis [5]) was 250 mM and the “MIC, EDTA in 50 mM Tris alone” value (Aeromonas sobria) was 15.6. The “MIC, EDTA in 50 mM Tris alone” value (Aeromonas caviae) was <0.49.
With oxacillin/methicillin the Antibiotic resistance profile (Pseudomonas aeruginosa [1]) was “R”, the Antibiotic resistance profile (Enterococcus faecalis [2]) was “R” and the Antibiotic resistance profile (Staphylococcus aureus [3]) was “R”.
For `CCn1cc(C(=O)O)c(=O)c2ccc(C)nc21` [NA, nalidixic acid], the Antibiotic resistance profile (Pseudomonas aeruginosa [1]) was “R”, the Antibiotic resistance profile (Enterococcus faecalis [2]) was “R” and the Antibiotic resistance profile (Staphylococcus aureus [3]) was “R”.
In the case of neomycin, the Antibiotic resistance profile (Pseudomonas aeruginosa [1]) is reported as “R”, the Antibiotic resistance profile (Enterococcus faecalis [2]) is reported as “R” and the Antibiotic resistance profile (Staphylococcus aureus [3]) is reported as “R”. For the same compound, the “MBC, individually administered” value (Staphylococcus aureus [6]) was 3130 µg/mL, the “MBC, individually administered” value (Pseudomonas aeruginosa [4]) was 5000 µg/mL and the “MBC, individually administered” value (Enterococcus faecalis [5]) was 25000 µg/mL. The “MIC, neomycin alone” value (Aeromonas sobria) was 12.5 µg/mL, the “MIC, neomycin alone” value (Aeromonas caviae) was 12.5 µg/mL and the “MIC, neomycin alone” value (Aeromonas hydrophila) was 200 µg/mL.
For `CCN1CCN(c2cc3c(cc2F)c(=O)c(C(=O)O)cn3C2CC2)CC1` [Baytril], the Healing of ulcers [7] was “failed to heal visible ulcers”.
With cocamidopropyl betaine the MBC ([8]; S. intermedius) was 0.1% of stock solution, the MIC ([8]; S. intermedius) was 0.1% of stock solution and the MBC [8, 12] was 0.001x. For the same compound, the MIC [8, 12] was 0.001x, the MBC (Escherichia coli; E. coli) was 50% of stock solution and the MIC (Escherichia coli; E. coli) was 25% of stock solution. For the same compound, the MBC (Escherichia coli; [13]) was 0.5x, the MIC (Escherichia coli; [13]) was 0.25x and the MBC (Pseudomonas aeruginosa [9]; P. aeruginosa) was 50% of stock solution. For the same compound, the MIC (Pseudomonas aeruginosa [9]; P. aeruginosa) was 25% of stock solution, the MBC (Pseudomonas aeruginosa [9]; [14]) was 0.5x and the MIC (Pseudomonas aeruginosa [9]; [14]) was 0.25x. For the same compound, the MBC (Malassezia pachydermatis; M. pachydermatis) was 0.3% of stock solution, the MIC (Malassezia pachydermatis; M. pachydermatis) was 0.1% of stock solution and the MBC (Malassezia pachydermatis; [15]) was 0.003x. For the same compound, the MIC (Malassezia pachydermatis; [15]) was 0.001x, the MBC (Proteus mirabilis; P. mirabilis) was 50% of stock solution and the MIC (Proteus mirabilis; P. mirabilis) was 25% of stock solution. The MBC (Proteus mirabilis; [16]) was 0.5x, the MIC (Proteus mirabilis; [16]) was 0.25x and the MBC (Candida albicans; C. albicans) was 0.3% of stock solution. The MIC (Candida albicans; C. albicans) was 0.1% of stock solution, the MBC (Candida albicans; [17]) was 0.003x and the MIC (Candida albicans; [17]) was 0.001x. The MBC (Pseudomonas aeruginosa [10]) was 0.5x, the MIC (Pseudomonas aeruginosa [10]) was 0.25x and the MBC (Staphylococcus aureus [11]) was 0.001x. For the same compound, the MIC (Staphylococcus aureus [11]) was 0.001x.
In the case of `CC1(C)S[C@@H]2[C@H](NC(=O)[C@H](N)c3ccccc3)C(=O)N2[C@H]1C(=O)O` [Am, ampicillin], the Antibiotic resistance profile (Pseudomonas aeruginosa [1]) is reported as “R”, the Antibiotic resistance profile (Enterococcus faecalis [2]) is reported as “S” and the Antibiotic resistance profile (Staphylococcus aureus [3]) is reported as “R^B”.
`[H]/N=C(/N)N[C@H]1[C@H](O)[C@@H](O)[C@H](O[C@@H]2O[C@@H](C)[C@](O)(C=O)[C@H]2O[C@@H]2O[C@@H](CO)[C@H](O)[C@@H](O)[C@@H]2NC)[C@@H](N/C(N)=N\[H])[C@@H]1O` [S, streptomycin] was tested, and the Antibiotic resistance profile (Pseudomonas aeruginosa [1]) was “R”, the Antibiotic resistance profile (Enterococcus faecalis [2]) was “R” and the Antibiotic resistance profile (Staphylococcus aureus [3]) was “S”.
With `C[C@H]1[C@H](NC(=O)/C(=N\OC(C)(C)C(=O)O)c2csc(N)n2)C(=O)N1S(=O)(=O)O` [Azactam] the Healing of ulcers [7] was “failed to heal visible ulcers”.
`NCC[C@H](O)C(=O)N[C@@H]1C[C@H](N)[C@@H](O[C@H]2O[C@H](CN)[C@@H](O)[C@H](O)[C@H]2O)[C@H](O)[C@H]1O[C@H]1O[C@H](CO)[C@@H](O)[C@H](N)[C@H]1O` [Amikacin] was tested, and the Healing of ulcers [7] was “failed to heal visible ulcers”.
`CN(C)[C@@H]1C(O)=C(C(N)=O)C(=O)[C@@]2(O)C(O)=C3C(=O)c4c(O)cccc4[C@@](C)(O)[C@H]3C[C@@H]12` [Te, tetracycline] was tested, and the Antibiotic resistance profile (Pseudomonas aeruginosa [1]) was “R”, the Antibiotic resistance profile (Enterococcus faecalis [2]) was “R” and the Antibiotic resistance profile (Staphylococcus aureus [3]) was “S”.
For `Cc1noc(NS(=O)(=O)c2ccc(N)cc2)c1C` [G, sulfisoxazole], the Antibiotic resistance profile (Pseudomonas aeruginosa [1]) was “R”, the Antibiotic resistance profile (Enterococcus faecalis [2]) was “R” and the Antibiotic resistance profile (Staphylococcus aureus [3]) was “S”.

Reference: US20100324132A1, “METHODS AND COMPOSITIONS FOR PROMOTING WOUND HEALING” (priority 2005, published 2010)
